Measured values as given in patent publication US8846653B2, “Delta-tocotrienol treatment and prevention of pancreatic cancer” (University of South Florida, priority 2006, dated 2014).

Legend:
Format in all cases: cell-based, human
MiaPaCa-2 cells [1] = assay: MTT assay of MiaPaCa2 cultures, single 50 μM dose; set-up: rel amt (relative value set to the control): unit not given here; conditions: MiaPaCa2, 50 μM; for MTT assay result, av-blank: average minus blank; for MTT assay result, av: average of 7 runs
Method in brief: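 MiaPaCa-2 cells given a single 50 μM dose of test agent (tocotrienols, tocopherols, tocopherol succinate, geranylgeraniol or succinic acid) or vehicle (ethanol-extracted olive oil). Viability read by MTT at 48 or 120 hours after treatment, alongside vehicle-only control culture.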

MiaPaCa-2 cells [2] = assay: MTS assay of MiaPaCa2 cultures, single 50 μM dose; conditions: MiaPaCa2, 50 μM
Method in brief: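 MiaPaCa-2 pancreatic cancer cells were grown in complete DMEM with 10% fetal bovine serum, 1% penicillin-streptomycin and 1% L-glutamine, kept at 37° C. in a humidified 5% CO2 incubator. They received a single 50 μM dose of test agent or vehicle alongside an untreated control culture, and viability was assessed by MTS assay.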

BXPC3 cells = assay: MTT assay of BXPC3 cultures, single 50 μM dose; set-up: MTT assay result, run 1 / MTT assay result, run 2 / MTT assay result, run 3 / MTT assay result, run 4 / MTT assay result, run 5 / MTT assay result, run 6 / MTT assay result, run 7 / MTT assay result, av (average) / MTT assay result, av-blank / MTT assay result, av: unit not given here; conditions: BXPC3, 50 μM; for MTT assay result, av-blank: average minus blank
Method in brief: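 BXPC3 cells in 10% FBS medium at 37° C, 5% CO2, given a single 50 μM dose of tocotrienols, tocopherols, tocopherol succinate, geranylgeraniol, succinic acid or vehicle, alongside untreated control. Viability read by MTT at 48 or 120 hours.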

Compound: CC(C)=CCC/C(C)=C/CC/C(C)=C/CC[C@]1(C)CCc2c(C)c(O)cc(C)c2O1 [T3 beta, beta tocotrienol]
- rel amt (relative value set to the control) (MiaPaCa-2 cells [1]; 48 hours): 62
- MTT assay result, av-blank (MiaPaCa-2 cells [1]; 48 hours): 0.193
- MTT assay result, av (MiaPaCa-2 cells [1]; 48 hours): 0.239
- MTT assay result, run 1 (MiaPaCa-2 cells [1]; 48 hours): 0.272
- MTT assay result, run 2 (MiaPaCa-2 cells [1]; 48 hours): 0.235
- MTT assay result, run 3 (MiaPaCa-2 cells [1]; 48 hours): 0.233
- MTT assay result, run 4 (MiaPaCa-2 cells [1]; 48 hours): 0.226
- MTT assay result, run 5 (MiaPaCa-2 cells [1]; 48 hours): 0.252
- MTT assay result, run 6 (MiaPaCa-2 cells [1]; 48 hours): 0.219
- MTT assay result, run 7 (MiaPaCa-2 cells [1]; 48 hours): 0.239
- rel amt (relative value set to the control) (MiaPaCa-2 cells [1]; 120 hours (5 days)): 53
- MTT assay result, av-blank (MiaPaCa-2 cells [1]; 120 hours (5 days)): 0.966
- MTT assay result, av (MiaPaCa-2 cells [1]; 120 hours (5 days)): 1.018
- MTT assay result, run 1 (MiaPaCa-2 cells [1]; 120 hours (5 days)): 0.97
- MTT assay result, run 2 (MiaPaCa-2 cells [1]; 120 hours (5 days)): 0.781
- MTT assay result, run 3 (MiaPaCa-2 cells [1]; 120 hours (5 days)): 0.977
- MTT assay result, run 4 (MiaPaCa-2 cells [1]; 120 hours (5 days)): 1.154
- MTT assay result, run 5 (MiaPaCa-2 cells [1]; 120 hours (5 days)): 1.408
- MTT assay result, run 6 (MiaPaCa-2 cells [1]; 120 hours (5 days)): 0.944
- MTT assay result, run 7 (MiaPaCa-2 cells [1]; 120 hours (5 days)): 0.891
- rel amt (relative value set to the control) (MiaPaCa-2 cells [2]; 24 hours): 79
- MTS assay result, run 1 (MiaPaCa-2 cells [2]; 24 hours): 0.17
- MTS assay result, run 2 (MiaPaCa-2 cells [2]; 24 hours): 0.179
- MTS assay result, run 3 (MiaPaCa-2 cells [2]; 24 hours): 0.184
- MTS assay result, run 4 (MiaPaCa-2 cells [2]; 24 hours): 0.152
- MTS assay result, run 5 (MiaPaCa-2 cells [2]; 24 hours): 0.172
- MTS assay result, run 6 (MiaPaCa-2 cells [2]; 24 hours): 0.182
- MTS assay result, run 7 (MiaPaCa-2 cells [2]; 24 hours): 0.179
- MTS assay result, run 8 (MiaPaCa-2 cells [2]; 24 hours): 0.19
- MTS assay result, run 9 (MiaPaCa-2 cells [2]; 24 hours): 0.176
- rel amt (relative value set to the control) (MiaPaCa-2 cells [2]; 48 hours): 61
- MTS assay result, run 1 (MiaPaCa-2 cells [2]; 48 hours): 0.193
- MTS assay result, run 2 (MiaPaCa-2 cells [2]; 48 hours): 0.137
- MTS assay result, run 3 (MiaPaCa-2 cells [2]; 48 hours): 0.227
- MTS assay result, run 4 (MiaPaCa-2 cells [2]; 48 hours): 0.223
- MTS assay result, run 5 (MiaPaCa-2 cells [2]; 48 hours): 0.231
- MTS assay result, run 6 (MiaPaCa-2 cells [2]; 48 hours): 0.272
- MTS assay result, run 7 (MiaPaCa-2 cells [2]; 48 hours): 0.225
- MTS assay result, run 8 (MiaPaCa-2 cells [2]; 48 hours): 0.27
- MTS assay result, run 9 (MiaPaCa-2 cells [2]; 48 hours): 0.222
- rel amt (relative value set to the control) (MiaPaCa-2 cells [2]; 72 hours): 69
- MTS assay result, run 1 (MiaPaCa-2 cells [2]; 72 hours): 0.349
- MTS assay result, run 2 (MiaPaCa-2 cells [2]; 72 hours): 0.316
- MTS assay result, run 3 (MiaPaCa-2 cells [2]; 72 hours): 0.328
- MTS assay result, run 4 (MiaPaCa-2 cells [2]; 72 hours): 0.298
- MTS assay result, run 5 (MiaPaCa-2 cells [2]; 72 hours): 0.323
- MTS assay result, run 6 (MiaPaCa-2 cells [2]; 72 hours): 0.287
- MTS assay result, run 7 (MiaPaCa-2 cells [2]; 72 hours): 0.281
- MTS assay result, run 8 (MiaPaCa-2 cells [2]; 72 hours): 0.275
- MTS assay result, run 9 (MiaPaCa-2 cells [2]; 72 hours): 0.307
- rel amt (relative value set to the control) (BXPC3 cells; 48 hours): 95
- MTT assay result, av-blank (BXPC3 cells; 48 hours): 0.216
- MTT assay result, av (average) (BXPC3 cells; 48 hours, average of 7 runs): 0.265
- MTT assay result, run 1 (BXPC3 cells; 48 hours): 0.263
- MTT assay result, run 2 (BXPC3 cells; 48 hours): 0.261
- MTT assay result, run 3 (BXPC3 cells; 48 hours): 0.27
- MTT assay result, run 4 (BXPC3 cells; 48 hours): 0.254
- MTT assay result, run 5 (BXPC3 cells; 48 hours): 0.278
- MTT assay result, run 6 (BXPC3 cells; 48 hours): 0.255
- MTT assay result, run 7 (BXPC3 cells; 48 hours): 0.274
- rel amt (relative value set to the control) (BXPC3 cells; 120 hours (5 days)): 72
- MTT assay result, av-blank (BXPC3 cells; 120 hours (5 days)): 0.417
- MTT assay result, av (BXPC3 cells; 120 hours (5 days), average of 7 runs): 0.472
- MTT assay result, run 1 (BXPC3 cells; 120 hours (5 days)): 0.468
- MTT assay result, run 2 (BXPC3 cells; 120 hours (5 days)): 0.512
- MTT assay result, run 3 (BXPC3 cells; 120 hours (5 days)): 0.495
- MTT assay result, run 4 (BXPC3 cells; 120 hours (5 days)): 0.481
- MTT assay result, run 5 (BXPC3 cells; 120 hours (5 days)): 0.457
- MTT assay result, run 6 (BXPC3 cells; 120 hours (5 days)): 0.483
- MTT assay result, run 7 (BXPC3 cells; 120 hours (5 days)): 0.411
